Among the data in ChEMBL document CHEMBL1158214, “Rollinecins A and B: two new bioactive annonaceous acetogenins from Rollinia mucosa” (J Nat Prod, 1996) are EC50, ED50 and LC50 values, retold here.

The subject of data set [1] is MCF7. Put plainly: Cytotoxicity against human MCF7 cells. It is filed as functional. The settings on record: read-out: ED50 (the source's name).
Data set [2] relates to PC-3. Briefly: Cytotoxicity against human PC3 cells. Type of data set: functional.
Data set [3] has as its system A549. Put plainly: Cytotoxicity against human A549 cells. Type of data set: functional.
In data set [4] the test system is A498. Put plainly: Cytotoxicity against human A498 cells. It is filed as functional.
For data set [5], the system named is HT-29. Briefly: Cytotoxicity against human HT29 cells. Type of data set: functional. The following applies: read-out: ED50 (the source's name).
Data set [6] has as its system MIA PaCa-2. Briefly: Cytotoxicity against human MIAPaCa2 cells. It is filed as functional.
The nature of data set [7]: Toxicity in brine shrimp. It is filed as organism-based. The settings on record: artemia, in vivo.

Structures are written as SMILES. Converted amounts (≈) assume the structure as drawn.

As for `COc1cccc2c1C(=O)c1c(O)c3c(c(O)c1C2=O)C[C@@](O)(C(=O)CO)C[C@@H]3O[C@H]1C[C@H](N)[C@H](O)[C@H](C)O1` [DOXORUBICIN], the EC50 in data set [1] was determined as 0.0968 µg/mL (≈ 0.178 µM); in data set [2] (Homo sapiens, PC-3, read-out: ED50 (the source's name)) it was 0.0281 µg/mL (≈ 0.0517 µM); in data set [3] (Homo sapiens, A549, read-out: ED50 (the source's name)) it was 0.00157 µg/mL (≈ 0.00289 µM); in data set [4] (Homo sapiens, A498, read-out: ED50 (the source's name)), 0.0019 µg/mL (≈ 0.0035 µM); in data set [5], 0.0193 µg/mL (≈ 0.0355 µM); in data set [6] (Homo sapiens, MIA PaCa-2, read-out: ED50 (the source's name)) it was 0.0224 µg/mL (≈ 0.0412 µM).
For `CCCCCCCCCCCC[C@H](O)[C@H]1CC[C@H]([C@H](O)CC[C@H](O)CCCCCCCCC[C@@H](O)CC2=C[C@H](C)OC2=O)O1` [ROLLINECIN A], the EC50 in data set [1] was found to be 1.44 µg/mL (≈ 2.3 µM); in data set [5], 1.6 µg/mL (≈ 2.56 µM). Besides, the ED50 in data set [2] is recorded as 2.62 ×10⁻⁴ ug/ml; in data set [3], 1.14 ×10⁻⁴ ug/ml; in data set [4] it was 7.25 ×10⁻⁴ ug/ml; in data set [6] it was 3.47 ×10⁻⁵ ug/ml. Also, the LC50 in data set [7] came to 0.31 µg/mL (≈ 0.496 µM).
Regarding `CCCCCCCCCCCC[C@H](O)[C@H]1CC[C@H]([C@H](O)CC[C@@H](O)CCCCCCCCC[C@@H](O)CC2=C[C@H](C)OC2=O)O1` [ROLLINECIN B], the EC50 in data set [1] was determined as 2.72 µg/mL (≈ 4.35 µM); in data set [5], 1.44 µg/mL (≈ 2.3 µM). Further, the ED50 is given as 3.62 ×10⁻⁴ ug/ml in data set [2], 4.23 ×10⁻⁴ ug/ml in data set [3], 2.29 ×10⁻⁴ ug/ml in data set [4] and 2.53 ×10⁻⁴ ug/ml in data set [6]. This molecule came in with an LC50 in data set [7] of 0.13 µg/mL (≈ 0.208 µM).

For orientation: LC50 means the concentration lethal to half of the exposed cells or organisms. A lower LC50 goes with a more lethal substance.
